{"source": "patent US20120128745A1", "about": "“BENZYLIDENE MALONATES” (BASF SE, priority 2009, published 2012)", "key": {"[1]": {"experiment": "stabilization (photostability) of Butyl Methoxydibenzoylmethane in O/W emulsion film under solar simulator, HPLC", "format": "physicochemical", "details": "20 μm film on quartz plate, solar simulator 2 h (10 MED)", "description": "Testing of stabilization of Butyl Methoxydibenzoylmethane (BMDBM, Parsol 1789):\nThe photostability of Butyl Methoxydibenzoylmethane is determined by spreading the emulsion as a 20 μm thick film on a quartz plate. The film is irradiated using a solar simulator for 2 h (10 MED). After irradiation, the quartz plate is plunged into 5 ml of tetrahydrofurane. The amount of UV-A filter Butyl Methoxydibenzoylmethane is then determined using high performance liquid chromatography. The residual Butyl Methoxydibenzoylmethane is determined to be 47%.\nThe photostability of Butyl Methoxydibenzoylmethane in the comparative formulation C is determined as described above for formulation B. The residual Butyl Methoxydibenzoylmethane is determined to be 4%."}, "[2]": {"experiment": "photostability of 4-Methoxybenzylidene-di-tert-butyl-malonate in O/W emulsion film under solar simulator, HPLC", "format": "physicochemical", "details": "formulation A, solar simulator up to 10 h (50 MED)", "description": "The photostability of Butyl 4-Methoxybenzylidene-di-tert-butyl-malonate is determined by spreading the emulsion as a 20 μm thick film on four quartz plates. The plates are irradiated using a solar simulator for 1 h (5 MED), 2 h (10 MED), 4 h (20 MED) and 10 h (50 MED). After the indicated irradiation times one of the quartz plate is plunged into 5 ml of tetrahydrofurane. The amount of UV-B filter 4-Methoxybenzylidene-di-tert-butyl-malonate is then determined using high performance liquid chromatography. The residual 4-Methoxybenzylidene-di-tert-butyl-malonate is determined to be 100% (±1%) in all cases."}}, "data": [{"compound": "COc1ccc(C(=O)CC(=O)c2ccc(C(C)(C)C)cc2)cc1", "note": "[Butyl Methoxydibenzoylmethane, 1,3-Propanedione, 1-[4-(1,1-dimethylethyl)phenyl]-3-(4-methoxyphenyl)-]", "values": [{"measurement": "residual Butyl Methoxydibenzoylmethane", "setting": "[1]; comparative formulation C (without benzylidene malonate)", "result": 4, "unit": "%"}, {"measurement": "residual Butyl Methoxydibenzoylmethane", "setting": "[1]; formulation B (with 4-Methoxybenzylidene-di-tert-butyl-malonate)", "result": 47, "unit": "%"}]}, {"compound": "COc1ccc(C=C(C(=O)OC(C)(C)C)C(=O)OC(C)(C)C)cc1", "note": "[Example 18, 4-Methoxybenzylidene-di-tert-butyl-malonate]", "values": [{"measurement": "photostability in an O/W sunscreen formulation", "setting": "[2]", "result": "complete photostability"}]}]}
